{"source": "patent US20010051167A1", "about": "“USE OF 17-ALPHA-ESTRADIOL FOR THE TREATMENT OF AGED OR SUNDAMAGED SKIN AND/OR SKIN ATROPHY” (priority 1997, published 2001)", "key": {"[1]": {"test_system": "UV-photodamaged dorsal trunk skin of albino hairless mice (Skh-1)", "experiment": "Dermal repair zone depth in UV-photodamaged hairless mouse skin after topical treatment", "type": "in vivo", "text": "In one method, a deficit in connective tissue synthesis is induced by long-term exposure of mouse skin to ultraviolet (UV) radiation. […] The repair can be visualized as a region of new connective tissue which forms as a subepidermal band in the papillary dermis after topical retinoid treatment (Kligman LH, Chapter 10: Animal Models of Photodamage and Its Treatment, pp. 136-156, In: Photodamage, edited by B. A. Gilchrest, 1995, Blackwell Science, Cambridge, Mass.). The old malformed elastotic tissue, produced during UV exposure, is compressed by the retinoid-induced new connective tissue zone.\nConnective tissue photodamage was induced in albino hairless mice (Skh-1) (six to eight weeks old) by exposure of dorsal trunk skin to UV from FS40 fluorescent tubes, three days per week (Monday, Wednesday, Friday) for ten weeks. The UV dose started with one minimal erythemal dose (MED) and was increased gradually to 4.5 MEDs by week 5 and then continued at 4.5 MEDs for five more weeks. At the beginning of week 11, mice were treated topically with 0.1 mL test material on the dorsal trunk skin, three times per week (Monday, Wednesday, Friday) for 6 to 10 weeks. At the end of treatment, dorsal skin was excised and placed in 10% buffered formalin. The specimens were embedded, sectioned and stained with Luna's aldehyde fuchsin for elastic fibers. The dermal repair zone, defined as the area from the epidermal-dermal junction to the top of the compressed elastotic material, was quantified by measuring the depth of the zones with an image analyzer. […]"}, "[2]": {"test_system": "skin of albino hairless mice (Skh-1)", "experiment": "Estrogen-induced thickening of the skin (double skin-fold thickness)", "type": "in vivo, mouse", "conditions": "Example 4, 3 days of topical treatment", "experimental": "In the second method, topical estrogens increase the thickness of the entire skin by enhancing its water content. This is due to estrogen-stimulated increases in hyaluronic acid, which is a biomolecule that has an avid water binding capacity (Grosman et al. Acta Pharmacol. Toxicol., 1971, Vol. 30, pp. 458-464). Estrogen-induced thickening of the skin was assessed in albino hairless mice (Skh-1). The skin is topically treated for 3 days with 0.1 mL test material. The next day after the last dose, double skin-fold thickness is measured with an engineer's vernier calipers. This example compares the effects of 17-α-Estradiol and 17-β-Estradiol on skin thickening after 3 days of topical treatment."}, "[3]": {"test_system": "epidermis of albino hairless mice (Skh-1)", "experiment": "Thickness of the epidermis after 10 weeks of topical treatment", "type": "in vivo, mouse"}, "[4]": {"test_system": "markers of reproductive function", "conditions": "humans; administered subcutaneously; cited from earlier work"}, "[5]": {"conditions": "Example 2, topical dose 0.1%, 10 Weeks"}, "[6]": {"conditions": "Example 3, topical dose 0.01%, 10 weeks"}}}
{"compound": "C[C@]12CCC3c4ccc(O)cc4CCC3C1CC[C@H]2O", "note": "(stereo partly drawn) [17-α-estradiol]", "values": [{"measurement": "Repair Zone Depth (μm) ± SE", "setting": "[1]; Example 1, topical dose 0.50%, 10 weeks, 0.1 mL three times per week", "result": "71.8 ± 3.0", "unit": "μm"}, {"measurement": "Repair Zone Depth (μm) ± SE", "setting": "[1]; Example 2, topical dose 0.05%, 10 Weeks", "result": "36.8 ± 2.4", "unit": "μm"}, {"measurement": "Repair Zone Depth (μm) ± SE", "setting": "[1]; [5]", "result": "44.3 ± 2.3", "unit": "μm"}, {"measurement": "Repair Zone Depth (μm) ± SE", "setting": "[1]; Example 2, topical dose 0.5%, 6 Weeks", "result": "44.6 ± 2.7", "unit": "μm"}, {"measurement": "Repair Zone Depth (μm) ± SE", "setting": "[1]; Example 2, topical dose 0.5%, 10 Weeks", "result": "51.6 ± 3.5", "unit": "μm"}, {"measurement": "Repair Zone Depth (μm) ± SE", "setting": "[1]; [6]", "result": "49.4 ± 3.7", "unit": "μm"}, {"measurement": "Repair Zone Depth (μm) ± SE", "setting": "[1]; Example 3, topical dose 0.05%, 10 weeks", "result": "34.3 ± 3.7", "unit": "μm"}, {"measurement": "Repair Zone Depth (μm) ± SE", "setting": "[1]; Example 3, topical dose 0.5%, 10 weeks", "result": "62.4 ± 4.2", "unit": "μm"}, {"measurement": "Skin-Fold Thickness (mm) ± SE", "setting": "[2]; topical dose 0.01%", "result": "1.16 ± 0.07", "unit": "mm"}, {"measurement": "Skin-Fold Thickness (mm) ± SE", "setting": "[2]; topical dose 0.1%", "result": "1.43 ± 0.06", "unit": "mm"}, {"measurement": "Skin-Fold Thickness (mm) ± SE", "setting": "[2]; topical dose 0.5%", "result": "1.52 ± 0.14", "unit": "mm"}, {"measurement": "Epidermal Thickness (μm) ± SE", "setting": "[3]; Example 5, topical dose 0.05%", "result": "29.3 ± 0.3", "unit": "μm"}, {"measurement": "Epidermal Thickness (μm) ± SE", "setting": "[3]; Example 5, topical dose 0.1%", "result": "37.3 ± 1.8", "unit": "μm"}, {"measurement": "Epidermal Thickness (μm) ± SE", "setting": "[3]; Example 5, topical dose 0.5%", "result": "42.9 ± 3.8", "unit": "μm"}, {"measurement": "biological activity on markers of reproductive function", "setting": "[4]", "result": "lacked biological activity"}]}
{"compound": "CC1=C(/C=C/C(C)=C/C=C/C(C)=C/C(=O)O)C(C)(C)CCC1", "note": "[All-trans-retinoic acid]", "values": [{"measurement": "Repair Zone Depth (μm) ± SE", "setting": "[1]; Example 1, topical dose 0.03%, 10 weeks, 0.1 mL three times per week", "result": "72.0 ± 2.6", "unit": "μm"}, {"measurement": "Repair Zone Depth (μm) ± SE", "setting": "[1]; Example 2, topical dose 0.03%, 6 Weeks", "result": "44.5 ± 3.9", "unit": "μm"}, {"measurement": "Repair Zone Depth (μm) ± SE", "setting": "[1]; Example 2, topical dose 0.03%, 10 Weeks", "result": "59.0 ± 2.3", "unit": "μm"}, {"measurement": "Repair Zone Depth (μm) ± SE", "setting": "[1]; Example 3, topical dose 0.03%, 10 weeks", "result": "72.0 ± 3.3", "unit": "μm"}, {"measurement": "Epidermal Thickness (μm) ± SE", "setting": "[3]; Example 5, topical dose 0.03%", "result": "52.8 ± 3.6", "unit": "μm"}]}
{"compound": "C[C@]12CC[C@@H]3c4ccc(O)cc4CC[C@H]3[C@@H]1CC[C@@H]2O", "note": "[17-β-estradiol]", "values": [{"measurement": "Repair Zone Depth (μm) ± SE", "setting": "[1]; Example 1, topical dose 0.01%, 10 weeks, 0.1 mL three times per week", "result": "57.4 ± 6.1", "unit": "μm"}, {"measurement": "Repair Zone Depth (μm) ± SE", "setting": "[1]; Example 2, topical dose 0.1%, 6 Weeks", "result": "46.3 ± 0.9", "unit": "μm"}, {"measurement": "Repair Zone Depth (μm) ± SE", "setting": "[1]; [5]", "result": "38.7 ± 2.5", "unit": "μm"}, {"measurement": "Repair Zone Depth (μm) ± SE", "setting": "[1]; Example 3, topical dose 0.005%, 10 weeks", "result": "45.2 ± 3.1", "unit": "μm"}, {"measurement": "Repair Zone Depth (μm) ± SE", "setting": "[1]; [6]", "result": "53.4 ± 2.1", "unit": "μm"}, {"measurement": "Repair Zone Depth (μm) ± SE", "setting": "[1]; Example 3, topical dose 0.1%, 10 weeks", "result": "68.2 ± 6.0", "unit": "μm"}, {"measurement": "Skin-Fold Thickness (mm) ± SE", "setting": "[2]; topical dose 0.001%", "result": "1.25 ± 0.08", "unit": "mm"}, {"measurement": "Skin-Fold Thickness (mm) ± SE", "setting": "[2]; topical dose 0.01%", "result": "1.62 ± 0.11", "unit": "mm"}, {"measurement": "Skin-Fold Thickness (mm) ± SE", "setting": "[2]; topical dose 0.1%", "result": "1.5 ± 0.13", "unit": "mm"}, {"measurement": "Epidermal Thickness (μm) ± SE", "setting": "[3]; Example 5, topical dose 0.005%", "result": "32.0 ± 1.2", "unit": "μm"}, {"measurement": "Epidermal Thickness (μm) ± SE", "setting": "[3]; Example 5, topical dose 0.01%", "result": "28.3 ± 1.8", "unit": "μm"}, {"measurement": "Epidermal Thickness (μm) ± SE", "setting": "[3]; Example 5, topical dose 0.1%", "result": "48.1 ± 2.9", "unit": "μm"}]}
